# Laboratory results taken from ChEMBL document CHEMBL1145534 (2007).
# How the values were obtained:
# Type in all cases: functional
# Streptococcus mutans [1] = assay: Antimicrobial activity against viridans group Streptococcus mutans at 0.25 ug/ml by broth microdilution method
# Streptococcus mitis [2] = assay: Antimicrobial activity against viridans group Streptococcus mitis at 1 ug/ml by broth microdilution method
# Enterococcus raffinosus = assay: Antimicrobial activity against Enterococcus raffinosus at 0.5 ug/ml by broth microdilution method
# Enterococcus gallinarum [3] = assay: Antimicrobial activity against Enterococcus gallinarum by broth microdilution method
# Corynebacterium sp. [4] = assay: Antimicrobial activity against Corynebacterium spp. at 0.25 ug/ml by broth microdilution method
# Streptococcus equinus [5] = assay: Antimicrobial activity against viridans group Streptococcus bovis at 0.5 ug/ml by broth microdilution method
# [6] = test system: Streptococcus intermedius; assay: Antimicrobial activity against viridans group Streptococcus intermedius at 0.5 ug/ml by broth microdilution method
# Corynebacterium jeikeium = assay: Antimicrobial activity against Corynebacterium jeikeium at <= 0.06 ug/ml by broth microdilution method
# Streptococcus mutans [7] = assay: Antimicrobial activity against viridans group Streptococcus mutans at 0.5 ug/ml by broth microdilution method
# Streptococcus anginosus = assay: Antimicrobial activity against viridans group Streptococcus anginosus by broth microdilution method
# Streptococcus equinus [8] = assay: Antimicrobial activity against viridans group Streptococcus bovis by broth microdilution method
# Bacillus cereus = assay: Antimicrobial activity against Bacillus cereus at 0.12 ug/ml by broth microdilution method
# Streptococcus equinus [9] = assay: Antimicrobial activity against viridans group Streptococcus bovis at 0.12 ug/ml by broth microdilution method
# Enterococcus hirae [10] = assay: Antimicrobial activity against Enterococcus hirae at 1 ug/ml by broth microdilution method
# Micrococcus luteus [11] = assay: Antimicrobial activity against Micrococcus luteus at 0.25 ug/ml by broth microdilution method
# Corynebacterium sp. [12] = assay: Antimicrobial activity against Corynebacterium spp. at 1 ug/ml by broth microdilution method
# Enterococcus durans = assay: Antimicrobial activity against Enterococcus durans at 0.5 ug/ml by broth microdilution method
# Enterococcus avium [13] = assay: Antimicrobial activity against Enterococcus avium at 0.12 ug/ml by broth microdilution method
# Enterococcus avium [14] = assay: Antimicrobial activity against Enterococcus avium at <= 0.06 ug/ml by broth microdilution method
# [15] = test system: Streptococcus parasanguinis; assay: Antimicrobial activity against viridans group Streptococcus parasanguis at 0.5 ug/ml by broth microdilution method
# Streptococcus sanguinis [16] = assay: Antimicrobial activity against viridans group Streptococcus sanguinis at 1 ug/ml by broth microdilution method
# Rothia mucilaginosa [17] = assay: Antimicrobial activity against Rothia mucilaginosa at <= 0.06 ug/ml by broth microdilution method
# [18] = test system: Enterococcus casseliflavus; assay: Antimicrobial activity against Enterococcus casseliflavus at 1 ug/ml by broth microdilution method
# Streptococcus sanguinis [19] = assay: Antimicrobial activity against viridans group Streptococcus sanguinis at 0.25 ug/ml by broth microdilution method
# Micrococcus luteus [20] = assay: Antimicrobial activity against Micrococcus luteus at 0.5 ug/ml by broth microdilution method
# Enterococcus avium [21] = assay: Antimicrobial activity against Enterococcus avium at 2 ug/ml by broth microdilution method
# Enterococcus gallinarum [22] = assay: Antimicrobial activity against Enterococcus gallinarum at <= 0.06 ug/ml by broth microdilution method
# Enterococcus hirae [23] = assay: Antimicrobial activity against Enterococcus hirae at 0.25 ug/ml by broth microdilution method
# [24] = test system: Enterococcus casseliflavus; assay: Antimicrobial activity against Enterococcus casseliflavus at <= 0.06 ug/ml by broth microdilution method
# Corynebacterium sp. [25] = assay: Antimicrobial activity against Corynebacterium spp. at 2 ug/ml by broth microdilution method
# [26] = test system: Streptococcus vestibularis; assay: Antimicrobial activity against viridans group Streptococcus vestibularis at 0.25 ug/ml by broth microdilution method
# Aerococcus = assay: Antimicrobial activity against Aerococcus spp. at 0.5 ug/ml by broth microdilution method
# Rothia mucilaginosa [27] = assay: Antimicrobial activity against Rothia mucilaginosa at 0.25 ug/ml by broth microdilution method
# Corynebacterium striatum = assay: Antimicrobial activity against Corynebacterium striatum at 0.12 ug/ml by broth microdilution method
# Streptococcus = assay: Antimicrobial activity against beta hemolytic Streptococci group G at 0.25 ug/ml by broth microdilution method
# Streptococcus oralis = assay: Antimicrobial activity against viridans group Streptococcus oralis with G2576T rRNA mutation at 4 ug/ml by broth microdilution method
# Streptococcus mitis [28] = assay: Antimicrobial activity against viridans group Streptococcus mitis at 0.12 ug/ml by broth microdilution method
compound,measurement,setting,value
CC(=O)NC[C@H]1CN(c2ccc(N3CCOCC3)c(F)c2)C(=O)O1 [LINEZOLID],inhibition at 0.25 µg/mL,Streptococcus mutans [1],0%
same,inhibition at 1 µg/mL,Streptococcus mitis [2],99.1%
same,inhibition at 0.5 µg/mL,Enterococcus raffinosus,0%
same,MIC50,Enterococcus gallinarum [3],2 µg/mL
same,MIC90,Enterococcus gallinarum [3],2 µg/mL
same,inhibition at 0.25 µg/mL,Corynebacterium sp. [4],68.2%
same,inhibition at 0.5 µg/mL,Streptococcus equinus [5],23.8%
same,inhibition at 0.5 µg/mL,[6],24.2%
same,Inhibition,Corynebacterium jeikeium,1.7%
same,inhibition at 0.5 µg/mL,Streptococcus mutans [7],36.8%
same,MIC50,Streptococcus anginosus,1 µg/mL
same,MIC90,Streptococcus anginosus,1 µg/mL
same,MIC50,Streptococcus equinus [8],1 µg/mL
same,MIC90,Streptococcus equinus [8],2 µg/mL
same,inhibition at 0.12 µg/mL,Bacillus cereus,1.7%
same,inhibition at 0.12 µg/mL,Streptococcus equinus [9],0%
same,inhibition at 1 µg/mL,Enterococcus hirae [10],37.5%
same,inhibition at 0.25 µg/mL,Micrococcus luteus [11],3.4%
same,inhibition at 1 µg/mL,Corynebacterium sp. [12],99.6%
same,inhibition at 0.5 µg/mL,Enterococcus durans,8.2%
same,inhibition at 0.12 µg/mL,Enterococcus avium [13],0%
same,Inhibition,Enterococcus avium [14],0%
same,inhibition at 0.5 µg/mL,[15],57.1%
same,inhibition at 1 µg/mL,Streptococcus sanguinis [16],97.9%
same,Inhibition,Rothia mucilaginosa [17],0%
same,inhibition at 1 µg/mL,[18],23.1%
same,inhibition at 0.25 µg/mL,Streptococcus sanguinis [19],4.2%
same,inhibition at 0.5 µg/mL,Micrococcus luteus [20],75.9%
same,inhibition at 2 µg/mL,Enterococcus avium [21],99.1%
same,Inhibition,Enterococcus gallinarum [22],0%
same,inhibition at 0.25 µg/mL,Enterococcus hirae [23],0%
same,Inhibition,[24],0%
same,inhibition at 2 µg/mL,Corynebacterium sp. [25],100%
same,inhibition at 0.25 µg/mL,[26],0%
same,inhibition at 0.5 µg/mL,Aerococcus,31.8%
same,inhibition at 0.25 µg/mL,Rothia mucilaginosa [27],16.7%
same,inhibition at 0.12 µg/mL,Corynebacterium striatum,12%
same,inhibition at 0.25 µg/mL,Streptococcus,0.8%
same,inhibition at 4 µg/mL,Streptococcus oralis,99.3%
same,inhibition at 0.12 µg/mL,Streptococcus mitis [28],1.2%
